# Test results reported in patent US20250340557A1, “PYRIMIDINE DERIVATIVE” (ASKA PHARMACEUTICAL CO., LTD., priority 2022, published 2025).
# Molecular target: T1, human mPGES-1 (Homo sapiens, UniProt O14684)
# T1 construct: made in house; host or cells: COS-1 cells (transient transfection; microsomal fraction used as enzyme)
# T1 sequence (O14684 1-152): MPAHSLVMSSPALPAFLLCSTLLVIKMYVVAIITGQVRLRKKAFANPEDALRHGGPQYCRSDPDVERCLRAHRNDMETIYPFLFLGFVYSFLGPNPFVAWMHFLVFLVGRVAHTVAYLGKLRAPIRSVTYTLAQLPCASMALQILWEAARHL
# Experiment: Test for mPGES-1 inhibitory activity (microsomal enzyme, PGE2 EIA)
# Assay type: biochemical
# Conditions: microsomes of COS-1 cells transfected with human mPGES-1 cDNA; PGH2 1 μM; 4° C., 4 minutes; PGE2 by EIA; read-out: h mPGES1 IC50
# In short: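 IC50 values were derived from EIA-quantified PGE2 after a 4 min, 4 °C reaction with PGH2 at 1 μM final, stopped with ferric chloride/citric acid. Beforehand, compound (2% DMSO final) sat 15 min at 4 °C with human mPGES-1 microsomes from transiently transfected COS-1 cells. Buffer was sodium phosphate pH 7.2 containing 2.5 mM reduced glutathione and 1 mM EDTA.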
row,Compound,IC50
1,"O=c1cc(C(F)F)nc(-c2c(C(F)(F)F)ccc(CNC(=O)[C@H]3C[C@H](OCc4ccc(C(F)(F)F)cc4)C3)c2F)[nH]1 [Example 166, trans-N-{3-[4-(difluoromethyl)-6-oxo-1,6-dihydropyrimidin-2-yl]-2-fluoro-4-(trifluoromethyl)benzyl}-3-{[4-(trifluoromethyl)benzyl]oxy}cyclobutane-1-carboxamide]",8.8 nM
2,"O=c1cc(C(F)F)nc(-c2c(C(F)(F)F)ccc(CNC(=O)[C@H]3C[C@H](OCc4ccc(F)cc4F)C3)c2F)[nH]1 [Example 167, trans-3-[(2,4-difluorobenzyl)oxy]-N-{3-[4-(difluoromethyl)-6-oxo-1,6-dihydropyrimidin-2-yl]-2-fluoro-4-(trifluoromethyl)benzyl}cyclobutane-1-carboxamide]",< 1 nM
3,"O=c1cc(C(F)F)nc(-c2c(C(F)(F)F)ccc(CNC(=O)[C@H]3C[C@H](OCc4ccc(Cl)cc4F)C3)c2F)[nH]1 [Example 168, trans-3-[(4-chloro-2-fluorobenzyl)oxy]-N-{3-[4-(difluoromethyl)-6-oxo-1,6-dihydropyrimidin-2-yl]-2-fluoro-4-(trifluoromethyl)benzyl}cyclobutane-1-carboxamide]",< 1 nM
4,"O=c1cc(C(F)F)nc(-c2c(C(F)(F)F)ccc(CNC(=O)[C@H]3C[C@H](OCc4ccc(F)c(F)c4)C3)c2F)[nH]1 [Example 169, trans-3-[(3,4-difluorobenzyl)oxy]-N-{3-[4-(difluoromethyl)-6-oxo-1,6-dihydropyrimidin-2-yl]-2-fluoro-4-(trifluoromethyl)benzyl}cyclobutane-1-carboxamide]",< 1 nM
5,"O=c1cc(C(F)F)nc(-c2c(C(F)(F)F)ccc(CNC(=O)[C@H]3C[C@H](OCc4cc(F)cc(F)c4)C3)c2F)[nH]1 [Example 170, trans-3-[(3,5-difluorobenzyl)oxy]-N-{3-[4-(difluoromethyl)-6-oxo-1,6-dihydropyrimidin-2-yl]-2-fluoro-4-(trifluoromethyl)benzyl}cyclobutane-1-carboxamide]",1.3 nM
6,"O=c1cc(C(F)F)nc(-c2c(C(F)(F)F)ccc(CNC(=O)[C@H]3C[C@H](OCc4cccc(F)c4)C3)c2F)[nH]1 [Example 171, trans-N-{3-[4-(difluoromethyl)-6-oxo-1,6-dihydropyrimidin-2-yl]-2-fluoro-4-(trifluoromethyl)benzyl}-3-[(3-fluorobenzyl)oxy]cyclobutane-1-carboxamide]",< 1 nM
7,"O=c1cc(C(F)F)nc(-c2c(C(F)(F)F)ccc(CNC(=O)[C@H]3C[C@H](OCc4cccc(F)c4F)C3)c2F)[nH]1 [Example 172, trans-3-[(2,3-difluorobenzyl)oxy]-N-{3-[4-(difluoromethyl)-6-oxo-1,6-dihydropyrimidin-2-yl]-2-fluoro-4-(trifluoromethyl)benzyl}cyclobutane-1-carboxamide]",< 1 nM
8,"O=c1cc(C(F)F)nc(-c2c(C(F)(F)F)ccc(CNC(=O)[C@H]3C[C@H](OCc4ccc(F)cc4Cl)C3)c2F)[nH]1 [Example 173, trans-3-[(2-chloro-4-fluorobenzyl)oxy]-N-{3-[4-(difluoromethyl)-6-oxo-1,6-dihydropyrimidin-2-yl]-2-fluoro-4-(trifluoromethyl)benzyl}cyclobutane-1-carboxamide]",< 1 nM
9,"O=c1cc(C(F)F)nc(-c2c(C(F)(F)F)ccc(CNC(=O)[C@H]3C[C@H](OCc4cccc(Cl)c4F)C3)c2F)[nH]1 [Example 174, trans-3-[(3-chloro-2-fluorobenzyl)oxy]-N-{3-[4-(difluoromethyl)-6-oxo-1,6-dihydropyrimidin-2-yl]-2-fluoro-4-(trifluoromethyl)benzyl}cyclobutane-1-carboxamide]",< 1 nM
10,"O=c1cc(C(F)F)nc(-c2c(C(F)(F)F)ccc(CNC(=O)[C@H]3C[C@H](OCc4cc(Cl)ccc4F)C3)c2F)[nH]1 [Example 175, trans-3-[(5-chloro-2-fluorobenzyl)oxy]-N-{3-[4-(difluoromethyl)-6-oxo-1,6-dihydropyrimidin-2-yl]-2-fluoro-4-(trifluoromethyl)benzyl}cyclobutane-1-carboxamide]",< 1 nM
11,"O=c1cc(C(F)F)nc(-c2c(C(F)(F)F)ccc(CNC(=O)[C@H]3C[C@H](OCc4ccc(F)c(Cl)c4)C3)c2F)[nH]1 [Example 176, trans-3-[(3-chloro-4-fluorobenzyl)oxy]-N-{3-[4-(difluoromethyl)-6-oxo-1,6-dihydropyrimidin-2-yl]-2-fluoro-4-(trifluoromethyl)benzyl}cyclobutane-1-carboxamide]",< 1 nM
12,"O=c1cc(C(F)F)nc(-c2c(C(F)(F)F)ccc(CNC(=O)[C@H]3C[C@H](OCc4cc(F)cc(Cl)c4)C3)c2F)[nH]1 [Example 177, trans-3-[(3-chloro-5-fluorobenzyl)oxy]-N-{3-[4-(difluoromethyl)-6-oxo-1,6-dihydropyrimidin-2-yl]-2-fluoro-4-(trifluoromethyl)benzyl}cyclobutane-1-carboxamide]",10 nM
13,"Cc1cc(=O)[nH]c(-c2c(C(F)(F)F)ccc(CNC(=O)[C@H]3C[C@H](OCc4ccccc4Cl)C3)c2F)n1 [Example 178, trans-3-[(2-chlorobenzyl)oxy]-N-[2-fluoro-3-(4-methyl-6-oxo-1,6-dihydropyrimidin-2-yl)-4-(trifluoromethyl)benzyl]cyclobutane-1-carboxamide]",< 1 nM
14,"Cc1cc(=O)[nH]c(-c2c(C(F)(F)F)ccc(CNC(=O)[C@H]3C[C@H](OCc4cccc(Cl)c4)C3)c2F)n1 [Example 179, trans-3-[(3-chlorobenzyl)oxy]-N-[2-fluoro-3-(4-methyl-6-oxo-1,6-dihydropyrimidin-2-yl)-4-(trifluoromethyl)benzyl]cyclobutane-1-carboxamide]",< 1 nM
15,"Cc1cc(=O)[nH]c(-c2c(C(F)(F)F)ccc(CNC(=O)[C@H]3C[C@H](OCc4ccc(Cl)cc4)C3)c2F)n1 [Example 180, trans-3-[(4-chlorobenzyl)oxy]-N-[2-fluoro-3-(4-methyl-6-oxo-1,6-dihydropyrimidin-2-yl)-4-(trifluoromethyl)benzyl]cyclobutane-1-carboxamide]",1.7 nM
16,"Cc1cc(=O)[nH]c(-c2c(C(F)(F)F)ccc(CNC(=O)[C@H]3C[C@H](OCc4ccccc4C(F)(F)F)C3)c2F)n1 [Example 181, trans-N-[2-fluoro-3-(4-methyl-6-oxo-1,6-dihydropyrimidin-2-yl)-4-(trifluoromethyl)benzyl]-3-{[2-(trifluoromethyl)benzyl]oxy}cyclobutane-1-carboxamide]",19 nM
17,"Cc1cc(=O)[nH]c(-c2c(C(F)(F)F)ccc(CNC(=O)[C@H]3C[C@H](OCc4cccc(C(F)(F)F)c4)C3)c2F)n1 [Example 182, trans-N-[2-fluoro-3-(4-methyl-6-oxo-1,6-dihydropyrimidin-2-yl)-4-(trifluoromethyl)benzyl]-3-{[3-(trifluoromethyl)benzyl]oxy}cyclobutane-1-carboxamide]",12 nM
18,"Cc1cc(=O)[nH]c(-c2c(C(F)(F)F)ccc(CNC(=O)[C@H]3C[C@H](OCc4ccc(C(F)(F)F)cc4)C3)c2F)n1 [Example 183, trans-N-[2-fluoro-3-(4-methyl-6-oxo-1,6-dihydropyrimidin-2-yl)-4-(trifluoromethyl)benzyl]-3-{[4-(trifluoromethyl)benzyl]oxy}cyclobutane-1-carboxamide]",10 nM
19,"Cc1cc(=O)[nH]c(-c2c(C(F)(F)F)ccc(CNC(=O)[C@H]3C[C@H](OCc4ccc(F)cc4F)C3)c2F)n1 [Example 184, trans-3-[(2,4-difluorobenzyl)oxy]-N-[2-fluoro-3-(4-methyl-6-oxo-1,6-dihydropyrimidin-2-yl)-4-(trifluoromethyl)benzyl]cyclobutane-1-carboxamide]",< 1 nM
20,"Cc1cc(=O)[nH]c(-c2c(C(F)(F)F)ccc(CNC(=O)[C@H]3C[C@H](OCc4ccc(Cl)cc4F)C3)c2F)n1 [Example 185, trans-3-[(4-chloro-2-fluorobenzyl)oxy]-N-[2-fluoro-3-(4-methyl-6-oxo-1,6-dihydropyrimidin-2-yl)-4-(trifluoromethyl)benzyl]cyclobutane-1-carboxamide]",1.2 nM
21,"Cc1cc(=O)[nH]c(-c2c(C(F)(F)F)ccc(CNC(=O)[C@H]3C[C@H](OCc4ccc(F)c(F)c4)C3)c2F)n1 [Example 186, trans-3-[(3,4-difluorobenzyl)oxy]-N-[2-fluoro-3-(4-methyl-6-oxo-1,6-dihydropyrimidin-2-yl)-4-(trifluoromethyl)benzyl]cyclobutane-1-carboxamide]",3.2 nM
22,"Cc1cc(=O)[nH]c(-c2c(C(F)(F)F)ccc(CNC(=O)[C@H]3C[C@H](OCc4cc(F)cc(F)c4)C3)c2F)n1 [Example 187, trans-3-[(3,5-difluorobenzyl)oxy]-N-[2-fluoro-3-(4-methyl-6-oxo-1,6-dihydropyrimidin-2-yl)-4-(trifluoromethyl)benzyl]cyclobutane-1-carboxamide]",6.4 nM
23,"Cc1cc(=O)[nH]c(-c2c(C(F)(F)F)ccc(CNC(=O)[C@H]3C[C@H](OCc4cccc(F)c4)C3)c2F)n1 [Example 188, trans-N-[2-fluoro-3-(4-methyl-6-oxo-1,6-dihydropyrimidin-2-yl)-4-(trifluoromethyl)benzyl]-3-[(3-fluorobenzyl)oxy]cyclobutane-1-carboxamide]",10 nM
24,"Cc1cc(=O)[nH]c(-c2c(C(F)(F)F)ccc(CNC(=O)[C@H]3C[C@H](OCc4cccc(F)c4F)C3)c2F)n1 [Example 189, trans-3-[(2,3-difluorobenzyl)oxy]-N-[2-fluoro-3-(4-methyl-6-oxo-1,6-dihydropyrimidin-2-yl)-4-(trifluoromethyl)benzyl]cyclobutane-1-carboxamide]",13 nM
